{"source": "patent US9969766B2", "about": "“20(R)-ginsenoside Rg3 polyacylated derivatives, preparation and application thereof” (priority 2014, dated 2018)", "key": {"mouse melanoma B16 cells": {"tested_on": "mouse melanoma B16 cells", "assay": "Mouse melanoma B16 tail vein inoculation, lung metastasis", "conditions": "po × 14bid", "text": "(§1) human breast cancer Bcap-37 model, human lung cancer A549 model, human intestinal cancer LOVO model, human stomach cancer MGC model and human liver cancer QGY model, with tumor cell lines being of the second generation or more, mouse B16 melanoma cell line, mouse Lewis lung cancer model, mouse sarcoma s180 model, all passaged and preserved in Pharmacological Division of Shanghai Institute of Pharmaceutical Industry. 3. Experiment Animals Origins: nude mice, 6-week old, 18-22 g/mouse, provided by Laboratory Animal Center of Chinese Academy of Sciences, Shanghai Branch, with certification No. 2001A032. C57BL/6 mice and Kunming mice, 18-22 g/mouse, provided by Laboratory Animal Center of Chinese Academy of Sciences, Shanghai Branch, with certification SYXK (Shanghai) 2004-0015. Gender: male or female, the same gender for each batch in experiment Animal numbers: 10 mice and 10 nude mice for each of positive control group and test group in experiment, and 20 for negative control group. 4. Experiment Design Dose Settings: doses for 20(R)-ginsenoside Rg3 octo-acetate, 20(R)-ginsenoside Rg3 octo-n-butyrate and 20(R)-ginsenoside Rg3 octo-n-propionate were set as high-dose group (0.3 mg/kg/d), medium-dose group (0.06 mg/kg/d), and low-dose group (0.012 mg/kg/d). Dosage regimen: oral administration, twice daily. human tumor model and cell-inoculated mouse model: po×14 bid; mouse tumor-inoculated model: po×10 bid. Control Trial: negative control group: given with the same volume of 5% CMC-Na as the test group, and the same dosage regimen as the test group. positive control group: Cyclophosphamide CTX 30 mg/kg, MMC 2 mg/kg and 5Fu 30 mg/kg by intraperitoneal or intravenous administration, once daily, for seven consecutive days. 5. Experiment Method and Key Steps 5.1 Anti-Tumor Test 5.1.1 Subcutaneous Inoculation Model"}, "mouse Lewis lung cancer": {"tested_on": "mouse Lewis lung cancer", "assay": "Mouse Lewis lung cancer, toe subcutaneous inoculation, anti-tumor test", "conditions": "po × 14bid", "text": "as §1, with “MMC 2 mg/kg and 5Fu 30 mg/kg by intraperitoneal or intravenous administration, once daily, for seven consecutive days.” left out\nTumor cells of vigorous growth stage were taken under sterile condition and made into cell suspensions of about 1-2×10^7/ml by homogenization, the suspensions were inoculated subcutaneously at 0.2 ml/mouse in host mice and repeated on the next day according to the experiment design, the animals in each group were slaughtered after about three weeks, the tumors were collected and weighed, and the tumor inhibition rates were calculated according to the following equation: tumor inhibition rate %=[(average tumor weight of control group-average tumor weight of treatment group)/average tumor weight of control group]×100%"}, "[1]": {"tested_on": "human liver cancer QGY cells", "assay": "Human liver cancer QGY liver in-situ inoculation, survival", "conditions": "po × 14bid", "text": "as §1\nUnder sterile condition, the in vivo passage of the second generation of QGY tumor source of vigorous growth stage was prepared into cell suspensions of about 1-2×10^7/ml by homogenization (1:6), and the homogenates were filtered using 100-mesh stainless steel screen, getting ready for use. The nude mice were disinfected routinely and anaesthetized and cut at the xiphoid in the middle of the abdominal cavity to expose the liver, the cell suspensions (0.05 ml) were injected into liver parenchyma using imported 28 ga ½ ml syringes, the abdominal cavity was closed and then sutured layer by layer. The nude mice were fed in the laminar flow rack, with all the feed, packing, cage and contact instruments being sterilized under high pressure before use."}, "[2]": {"assay": "Solubility of the isolated products", "assay_type": "physicochemical"}, "mouse sarcoma S180 cells": {"tested_on": "mouse sarcoma S180 cells", "assay": "Mouse sarcoma S180 metastasis model", "conditions": "po × 14bid", "text": "as §1"}, "[3]": {"tested_on": "human stomach cancer MGC cells", "assay": "Human stomach cancer MGC in-situ inoculation, survival", "conditions": "for Animal body weight (g) Start / Animal body weight (g) end / Average survival (d) X ± SD / Life extension rate T/C × %: po × 14bid", "text": "as §1"}}}
{"smiles": "CC(=O)OC[C@H]1O[C@@H](OC2CC[C@]3(C)C(CC[C@@]4(C)C3C[C@H](OC(C)=O)C3C([C@@](C)(O)CCC=C(C)C)CC[C@@]34C)C2(C)C)[C@H](OC2O[C@H](COC(C)=O)[C@@H](OC(C)=O)[C@H](OC(C)=O)[C@H]2OC(C)=O)[C@@H](OC(C)=O)[C@@H]1OC(C)=O", "note": "(stereo partly drawn) [Rg3-octo-acetate, 20 (R)-ginsenoside Rg3 octaacetate]", "values": [{"measurement": "Anti-metastasis rate %", "setting": "mouse melanoma B16 cells; 0.012 mg/kg/d", "value": 50.90, "unit": "%"}, {"measurement": "Lung clone numbers (mice) X ± SD", "setting": "mouse melanoma B16 cells; 0.012 mg/kg/d", "value": "23.62 ± 7.0"}, {"measurement": "Anti-metastasis rate %", "setting": "mouse melanoma B16 cells; 0.06 mg/kg/d", "value": 63.87, "unit": "%"}, {"measurement": "Lung clone numbers (mice) X ± SD", "setting": "mouse melanoma B16 cells; 0.06 mg/kg/d", "value": "17.38 ± 7.1"}, {"measurement": "Anti-metastasis rate %", "setting": "mouse melanoma B16 cells; 0.3 mg/kg/d", "value": 79.98, "unit": "%"}, {"measurement": "Lung clone numbers (mice) X ± SD", "setting": "mouse melanoma B16 cells; 0.3 mg/kg/d", "value": "9.63 ± 7.9"}, {"measurement": "Tumor inhibition rate %", "setting": "mouse Lewis lung cancer; 0.012 mg/kg/d", "value": 50.15, "unit": "%"}, {"measurement": "Tumor-bearing toe weight (g) X ± SD", "setting": "mouse Lewis lung cancer; 0.012 mg/kg/d", "value": "0.444 ± 0.09", "unit": "g"}, {"measurement": "Tumor inhibition rate %", "setting": "mouse Lewis lung cancer; 0.06 mg/kg/d", "value": 58.89, "unit": "%"}, {"measurement": "Tumor-bearing toe weight (g) X ± SD", "setting": "mouse Lewis lung cancer; 0.06 mg/kg/d", "value": "0.366 ± 0.09", "unit": "g"}, {"measurement": "Tumor inhibition rate %", "setting": "mouse Lewis lung cancer; 0.3 mg/kg/d", "value": 71.09, "unit": "%"}, {"measurement": "Tumor-bearing toe weight (g) X ± SD", "setting": "mouse Lewis lung cancer; 0.3 mg/kg/d", "value": "0.633 ± 0.08", "unit": "g"}, {"measurement": "Animal body weight (g) Start", "setting": "[1]; 0.012 mg/kg/d", "value": 19.1, "unit": "g"}, {"measurement": "Animal body weight (g) end", "setting": "[1]; 0.012 mg/kg/d", "value": 25.2, "unit": "g"}, {"measurement": "Average survival (d) X ± SD", "setting": "[1]; 0.012 mg/kg/d", "value": "37.26 ± 4.5", "unit": "days"}, {"measurement": "Life extension rate T/C × %", "setting": "[1]; 0.012 mg/kg/d", "value": 159.58, "unit": "%"}, {"measurement": "Animal body weight (g) Start", "setting": "[1]; 0.06 mg/kg/d", "value": 19.1, "unit": "g"}, {"measurement": "Animal body weight (g) end", "setting": "[1]; 0.06 mg/kg/d", "value": 24.3, "unit": "g"}, {"measurement": "Average survival (d) X ± SD", "setting": "[1]; 0.06 mg/kg/d", "value": "38.90 ± 4.1", "unit": "days"}, {"measurement": "Life extension rate T/C × %", "setting": "[1]; 0.06 mg/kg/d", "value": 166.59, "unit": "%"}, {"measurement": "Animal body weight (g) Start", "setting": "[1]; 0.3 mg/kg/d", "value": 19.3, "unit": "g"}, {"measurement": "Animal body weight (g) end", "setting": "[1]; 0.3 mg/kg/d", "value": 24.8, "unit": "g"}, {"measurement": "Average survival (d) X ± SD", "setting": "[1]; 0.3 mg/kg/d", "value": "42.49 ± 5.0", "unit": "days"}, {"measurement": "Life extension rate T/C × %", "setting": "[1]; 0.3 mg/kg/d", "value": 181.98, "unit": "%"}, {"measurement": "Solubility in ethanol", "setting": "[2]; ethanol", "value": "soluble"}, {"measurement": "Solubility in water", "setting": "[2]; water", "value": "soluble"}, {"measurement": "Anti-metastasis rate %", "setting": "mouse sarcoma S180 cells; 0.012 mg/kg/d", "value": 51.50, "unit": "%"}, {"measurement": "Lung clone numbers (mice) X ± SD", "setting": "mouse sarcoma S180 cells; 0.012 mg/kg/d", "value": "1.43 ± 7.1"}, {"measurement": "Anti-metastasis rate %", "setting": "mouse sarcoma S180 cells; 0.06 mg/kg/d", "value": 65.80, "unit": "%"}, {"measurement": "Lung clone numbers (mice) X ± SD", "setting": "mouse sarcoma S180 cells; 0.06 mg/kg/d", "value": "1.01 ± 7.2"}, {"measurement": "Anti-metastasis rate %", "setting": "mouse sarcoma S180 cells; 0.3 mg/kg/d", "value": 78.94, "unit": "%"}, {"measurement": "Lung clone numbers (mice) X ± SD", "setting": "mouse sarcoma S180 cells; 0.3 mg/kg/d", "value": "0.62 ± 7.3"}, {"measurement": "Animal body weight (g) Start", "setting": "[3]; 0.012 mg/kg/d", "value": 19.8, "unit": "g"}, {"measurement": "Animal body weight (g) end", "setting": "[3]; 0.012 mg/kg/d", "value": 25.4, "unit": "g"}, {"measurement": "Average survival (d) X ± SD", "setting": "[3]; 0.012 mg/kg/d", "value": "38.84 ± 0.14", "unit": "days"}, {"measurement": "Life extension rate T/C × %", "setting": "[3]; 0.012 mg/kg/d", "value": 170.56, "unit": "%"}, {"measurement": "Animal body weight (g) Start", "setting": "[3]; 0.06 mg/kg/d", "value": 19.6, "unit": "g"}, {"measurement": "Animal body weight (g) end", "setting": "[3]; 0.06 mg/kg/d", "value": 24.6, "unit": "g"}, {"measurement": "Average survival (d) X ± SD", "setting": "[3]; 0.06 mg/kg/d", "value": "41.21 ± 0.11", "unit": "days"}, {"measurement": "Life extension rate T/C × %", "setting": "[3]; 0.06 mg/kg/d", "value": 180.98, "unit": "%"}, {"measurement": "Animal body weight (g) Start", "setting": "[3]; 0.3 mg/kg/d", "value": 19.7, "unit": "g"}, {"measurement": "Animal body weight (g) end", "setting": "[3]; 0.3 mg/kg/d", "value": 24.1, "unit": "g"}, {"measurement": "Average survival (d) X ± SD", "setting": "[3]; 0.3 mg/kg/d", "value": "46.04 ± 0.12", "unit": "days"}, {"measurement": "Life extension rate T/C × %", "setting": "[3]; 0.3 mg/kg/d", "value": 202.19, "unit": "%"}, {"measurement": "life-prolonging effect versus positive control group", "setting": "[3]; high-dose groups, summary of Table 7-9: human stomach, intestinal and liver cancer", "value": "better than the positive control group"}]}
